Test results as given in patent publication US8703698B2, “Compositions and methods for treating atherosclerosis” (The University of Chicago, priority 2003, dated 2014).

What was measured:
[1] = system: [3H]-cholesterol-loaded J774 macrophages; experiment: In vivo cholesterol efflux to plasma in mice injected with [3H]-cholesterol-loaded J774 macrophages; details: for 3H-cholesterol export into the plasma, dose response (FIGS. 17 and 18): liposome formulated, intravenous, 2, 4, 8, 16 or 32 μg/100 μl per mouse, 6 to 48 hours; for radiolabeled cholesterol exported in the plasma (FIG. 15): non-liposome formulated, in 100 μl PBS, intravenous, 15 μg/mouse peptide or 75 μg/mouse full length protein
Experimental: In these experiments, in vivo cholesterol export was determined in mice injected with J774 macrophages cholesterol-loaded with RBC membranes and [^3H]-cholesterol. Two hundred thousand macrophages in 100:1 PBS were injected into each mouse through the tail vein. At various time points thereafter, approximately 25:1 of blood were collected from the tail vein of each animal into heparinized capillary tubes. The tubes were then centrifuged for 5 minutes in an Adams Autocrit Centrifuge to separate red blood cells from plasma. Cholesterol efflux was determined by measuring the appearance of [^3H]-cholesterol in plasma by scintillation spectrometry. To study whether export of cholesterol from J774 cells to plasma was influenced by non-liposome formulated D-27mer peptide (SEQ ID NO:10), 24 hours after injection of cholesterol-loaded J774 macrophages into mice, the same animals received, by intravenous injection, 30 μg, 60 μg, 150 μg, 225 μg, 300 μg or 600 μg of D-27mer. All these amounts of D-peptides were dissolved in 100:l of phosphate buffered saline and injected through the tail vein of each animal.
Additional in vivo studies have also been conducted wherein mice were first injected intravenously with [^3H]cholesterol-laden macrophages and then injected 24 hours later with liposomes containing 0.5 μM of synthetic peptides corresponding to amino acid residues 1-20, 21-50, 51-80 or 74-103 of murine SAA2.1. Results from this study are depicted in FIG. 1. At time points indicated in the graph of FIG. 1, approximately 25 μl of blood were collected from the tail vein of each animal. The blood samples were centrifuged to separate the red blood cells from the plasma and the [^3H]-cholesterol in plasma was determined by scintillation counting. Results are mean±SEM of four determinations.
To determine cholesterol export in vivo, J774 macrophages were cholesterol-loaded with red blood cell membranes and [^3H]-cholesterol as described above. Cells were washed four times with PBS/BSA and then detached from the culture dishes. Five million cells in 200 μl DMEM were injected into control mice or inflamed mice through the tail vein. At various time points, approximately 25 μl of blood were collected from the tail vein of each animal into heparinized capillary tubes and then centrifuged for 5 minutes in an Adams Autocrit Centrifuge to separate red blood cells from plasma. Cholesterol efflux was determined by measuring the appearance of [^3H]-cholesterol in plasma by scintillation spectrometry.
J774 cells cultured in 6-well plates were enriched with cholesterol by incubating with red blood cell (RBC) membrane fragments (175:g as cholesterol) that had been previously labeled with 0.5:Ci/ml [^3H]-cholesterol at 37° C. for 24 hours in 0.2% bovine serum albumin (BSA). After loading with the labelled RBC membrane for 6 hours, cells were then washed with phosphate-buffered saline/BSA (PBS/BSA) three times followed by an 18 hour equilibration period during which monolayers were exposed to DMEM/BSA. To determine cholesterol export in vivo, J774 macrophages were cholesterol-loaded with RBC membranes and [^3H]-cholesterol as described previously above. Cells were washed four times with PBS/BSA and then detached from the culture dishes. Two hundred thousand cells in 100:l PBS were injected into mice through the tail vein. At various time points thereafter, approximately 25:l of blood were collected from the tail vein of each animal into heparinized capillary tubes. These tubes were then centrifuged for 5 minutes in an Adams Autocrit Centrifuge to separate red blood cells from plasma. Cholesterol efflux was determined by measuring the appearance of [^3H]-cholesterol in plasma by scintillation spectrometry. […]

[2] = system: THP-1 cells; experiment: Cholesterol efflux from cholesterol-laden human THP-1 cells; assay type: cell-based; details: for 3H-cholesterol exported into the media after 24 hours (FIG. 19): peptide/lipid mixture by microfluidizer, human THP-1 cells
[3] = system: J774 macrophages; experiment: [3H]cholesterol efflux from cholesterol-loaded J774 macrophages in tissue culture; assay type: cell-based, mouse; details: for 3H-cholesterol exported into the media after 24 hours (FIG. 19): peptide/lipid mixture by microfluidizer
[4] = system: NR8383 cells; experiment: Cholesterol export from rat NR8383 macrophages; assay type: cell-based; details: peptide/lipid mixture by microfluidizer
Experimental: In these experiments, mouse J774 cells, human THP-1 cells and rat NR8383 cells were loaded with red blood cell membranes containing ^3H-cholesterol in accordance with procedures outlined in Example 4. The peptides were prepared as lipid mixtures using a microfluidizer procedure. Briefly, 3 mg of the 20-mer synthetic peptide (SEQ ID NO:30) or the 19-mer synthetic peptide (SEQ ID NO:12) was mixed with 5 ml cyclohexane and sonicated (output power of 14 watts) for 20-seconds followed by a 10-second interval. Separately, 2-oleyl-1-palmitoyl-sn-glycero-3-phosphocholine (Sigma-Aldrich P3017; 67.8 mg) and cholesterol (9.66 mg) were dissolved in 2 ml of chloroform, vortexed and transferred to a 500 ml round bottom flask. The two mixtures (i.e. cyclohexane/peptide and phosphatidylcholine/cholesterol solutions) were then combined. The combined solution was dried using nitrogen gas while swirling the flask, resulting in a thin layer of lipid at the bottom half of the flask. In order to ensure that the thin layer of lipid residue was completely dry, nitrogen gas was streamed over the lipid layer for an additional 10 minutes. […] Efficacy of the peptides was determined as the amount ^3H-cholesterol exported into the media after 24 hours. […]

[5] = target: macrophage acyl CoA:cholesterol acyl transferase (murine)
[6] = target: T1, acyl CoA:cholesterol acyl transferase (Mus musculus, UniProt Q61263); details: intact murine macrophages and post-nuclear homogenates; Ely et al. 2001; cited from earlier work
T1 construct: The relative activity of acyl CoA:cholesterol acyl transferase was determined in cholesterol-laden cells; host or cells: J774 mouse macrophages, cholesterol-loaded
T1 sequence (Q61263 1-540): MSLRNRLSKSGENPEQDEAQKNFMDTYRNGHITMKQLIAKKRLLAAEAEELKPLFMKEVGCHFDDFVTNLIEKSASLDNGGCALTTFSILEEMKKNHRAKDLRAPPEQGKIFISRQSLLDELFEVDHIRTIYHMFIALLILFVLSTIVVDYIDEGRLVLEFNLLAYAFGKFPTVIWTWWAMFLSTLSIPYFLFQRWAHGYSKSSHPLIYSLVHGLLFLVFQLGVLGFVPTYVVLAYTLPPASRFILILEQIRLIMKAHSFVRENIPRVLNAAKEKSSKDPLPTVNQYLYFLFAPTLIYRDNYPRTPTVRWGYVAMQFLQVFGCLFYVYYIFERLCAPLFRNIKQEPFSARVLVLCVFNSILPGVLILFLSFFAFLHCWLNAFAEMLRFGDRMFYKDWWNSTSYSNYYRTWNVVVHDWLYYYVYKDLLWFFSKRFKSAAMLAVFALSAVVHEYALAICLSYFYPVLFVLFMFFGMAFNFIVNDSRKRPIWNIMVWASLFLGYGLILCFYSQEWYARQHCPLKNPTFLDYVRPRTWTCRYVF

[7] = system: hepatic, macrophage, and pancreatic cholesterol esterase; details: Lindhorst 1997; Ely 2001; Tam 2002; cited from earlier work
[8] = target: macrophage cholesterol ester hydrolase (murine)

Question: Which results are given for “ADQAANEWGRSGKDPNHFR [SEQ ID NO:12, consensus 19-mer, residues 78-96 of human SAA1.1]”?
Answer: 3H-cholesterol export into the plasma, dose response (FIGS. 17 and 18) [1]: increased efficacy as the dose increased; radiolabeled cholesterol exported in the plasma (FIG. 15) [1]: no effect on cholesterol efflux; cholesterol efflux, time course at various concentrations (FIG. 6) ([2]; liposomal formulations, 0.05 to 5.0 μM): continued to increase over a time period from 0 to 24 hours; 3H-cholesterol exported into the media after 24 hours (FIG. 19) [2]: equally effective in inducing cholesterol export; cholesterol export enhancing activity, time course (FIG. 9) ([3]; liposomal formulations, mouse J774 cells): greatest cholesterol export enhancing activity; increase of cholesterol efflux with dose compared to mouse peptide SEQ ID NO:4 (FIGS. 5A and 5B) ([3]; liposomes, 0.05 to 5.0 μM, macrophages): at least as effective if not more effective; 3H-cholesterol exported into the media after 24 hours (FIG. 19) ([3]; mouse J774 cells): equally effective in inducing cholesterol export; 3H-cholesterol exported into the media after 24 hours (FIG. 19) [4]: equally effective in inducing cholesterol export

Question: With “RSFFSFLGEAFDGARDMWRA [SEQ ID NO:30, 20-mer, residues 1-20 of human SAA1.1 or SAA2.1]” as the molecule, how does the “3H-cholesterol export into the plasma, dose response (FIGS. 17 and 18)” value [1] read?
Answer: increased efficacy as the dose increased

Question: What about the “radiolabeled cholesterol exported in the plasma (FIG. 15)” value [1] of the same molecule?
Answer: no effect on cholesterol efflux

Question: And the “3H-cholesterol exported into the media after 24 hours (FIG. 19)” value (“3H-cholesterol exported into the media” below) [2]?
Answer: equally effective in inducing cholesterol export

Question: And the “3H-cholesterol exported into the media” value ([3]; mouse J774 cells)?
Answer: equally effective in inducing cholesterol export

Question: What about the “3H-cholesterol exported into the media” value [4] of the same molecule?
Answer: equally effective in inducing cholesterol export

B1: synthetic peptide corresponding to amino acid residues 1-20 of murine SAA2.1 (peptide)
peptide: GFFSFVHEAFQGAGDMWRAY
Question: For B1, which acyl CoA:cholesterol acyl transferase activity (incorporation of [14C]oleate into cholesteryl ester), cholesterol-laden murine cells, liposomes with 0.5 µM peptide, 6 hour incubation (fold decrease) [5] is on record?
Answer: 2

B2: KEANWKNSDKYFHARGNYDAAQRGPGGVWAAEKISDGREAFQEFFGRGHEDTIADQEAN RHGRSGKDPNYYRPPGLPDKY (protein)
chain: KEANWKNSDKYFHARGNYDAAQRGPGGVWAAEKISDGREAFQEFFGRGHEDTIADQEANRHGRSGKDPNYYRPPGLPDKY
notes: 80-mer cyanogen bromide fragment of murine SAA2.1, residues 24-103
Question: For B2, which “macrophage ACAT activity” value [6] is on record?
Answer: no inhibitory effect on ACAT activity

Question: What about the “cholesterol esterase activities in vitro” value [7] of the same molecule?
Answer: effect was shown to reside

B3: synthetic peptide corresponding to amino acid residues 74-103 of murine SAA2.1 (peptide)
peptide: DTIADQEANRHGRSGKDPNYYRPPGLPDKY
Question: For B3, which rate of hydrolysis of [14C]-labeled cholesteryl oleate in J774 cells, re-esterification blocked with Sandoz 58-035 (fold increase) [8] is on record?
Answer: 3
